What is called inhibition is the change of the read-out against control, counted positive when it falls. One may read the IC50 as the point on the concentration scale where inhibition reaches its midpoint.

The target in data set [1] is T1, PqsR (Pseudomonas aeruginosa, UniProt Q9I4X0).
T1 construct: expressed in transfected cells; host or cells: E. coli DH5α carrying plasmid pEAL08-2
Kind of data set: cell-based. The conditions noted are these: read-out: Inhibition of PqsR stimulation induced by 50 nM PQS in the presence of test compd. (full inhibition = 1.00). The procedure:
The ability of the compounds to either stimulate or antagonize the PqsR-dependent transcription was analysed as previously described using a β-galactosidase reporter gene assay in E. coli expressing PqsR. Briefly, a culture of E. coli DH5α cells containing the plasmid pEAL08-2, which encodes PqsR under the control of the tac promoter and the β-galactosidase reporter gene lacZ controlled by the pqsA promoter, were co-incubated with test compound. Antagonistic effects of compounds were assayed in the presence of 50 nM PQS. After incubation, β-galactosidase activity was measured spectralphotometrically at OD420 nm using POLARstar Omega (BMG Labtech, Ortenberg, Germany) and expressed as percent stimulation of controls. For the determination of IC50 values, compounds were tested at least at eight different concentrations.

The subject of data set [2] is Pseudomonas aeruginosa. The note with it: cited from earlier work.
Data set [3] concerns P. aeruginosa infection. The conditions noted are these: cited from earlier work.
Data set [4] deals with P. aeruginosa biofilm. The note with it: background statement; cited from earlier work.
In data set [5] the test system is P. aeruginosa PA14. The note with it: strain not given, cited from earlier work.
Data set [6] has as its system P. aeruginosa infection. The note with it: cited from earlier work. The source holds these as a separate data set.
In data set [7] the test system is P. aeruginosa PA14. The note with it: in cellulo; ref. [20]; strain not given; read-out: IC50, inhibition of virulence factor pyocyanin production; cited from earlier work.
For data set [8], the system named is P. aeruginosa PA14. The data set is described as follows: Determination of extracellular PQS levels. The note with it: compd. at 15 μM. It is filed as cell-based. The procedure: Quantification of PQS produced by P. aeruginosa PA14 was performed according to the method of Maurer et al.. For each sample, cultivation and sample work-up were performed in triplicates. Inhibition values of PQS formation were normalized to OD600.

Data set [9] concerns P. aeruginosa PA14. The data set is described as follows: Pyocyanin assay. Type of data set: cell-based. The conditions noted are these: for Reduction of Pyocyanin: PA14. As for the experimental part:
For analysis of pyocyanin formation, cultivation procedure was the same as for HHQ determination with the exception of using PPGAS medium. Pyocyanin produced by PA14 was quantified using the method of Essar et al. with some modifications, as described in detail by Klein et al.. Briefly, 900 μL of each culture were extracted with 900 μL of chloroform and 800 μL of the organic phase re-extracted with 250 μL of 0.2 M HCl. OD520 was measured in the aqueous phase using FLUOstar Omega (BMG Labtech, Ortenberg, Germany). For each sample, cultivation and sample work-up were performed in triplicates. Inhibition values of pyocyanin formation were normalized to OD600.

Data set [10] has as its system P. aeruginosa PA14. The data set is described as follows: Biofilm growth assay, PA14. Type of data set: cell-based. The conditions noted are these: added to 24 h old biofilms, final concentration 100 μM. As for the experimental part:
Static biofilms at the bottom of 96 well microtiter plates were grown with small modifications as previously described. In brief, overnight P. aeruginosa LB cultures of PA14 were adjusted to an OD600 of 0.002 with fresh medium and transferred into a half-area 96 well μClear plate (Greiner Bio-One, 100 μL/well). The plate was covered with an air-permeable foil and incubated at 37° C. in a chamber with humid atmosphere. After 24 h, a staining solution including Syto9 and propidium iodide (LIVE/DEAD BacLight Bacterial Viability kit, Molecular Probes/Invitrogen) and the test compound solved in DMSO was added to the biofilms (final concentration 100 μM, 1% DMSO (v/v)) and biofilms were further incubated for 24 h at 37° C. After in total 48 h, biofilm stacks were acquired in the center of each well (step size: 3 μm) using an automated confocal microscope (TCS SP8, Leica Microsystems) equipped with an ×40/1.10 water objective. The acquired image stacks were processed and analyzed with a customized analysis solution for the Developer XD2 (Definiens) based on a previously described algorithm. 3D-projections of the biofilms are visualized with the software IMARIS (version 7.6.5, Bitplane).

The test system of data set [11] is clinical isolate MHH9639. The data set is described as follows: Biofilm growth assay, clinical isolate MHH9639. It is filed as cell-based, P. aeruginosa. The conditions noted are these: added to 24 h old biofilms, final concentration 100 μM.
Data set [12] deals with Pseudomonas aeruginosa. The conditions noted are these: cited from earlier work. This is another data set of the same source.

Structures are written as SMILES. Entries after “also recorded” stand apart in the source; their conditions may differ. Where two headings read alike, the source gives them in different places. Marks after values point to notes of the source that are not given here.

T1 sequence (Q9I4X0 whole entry): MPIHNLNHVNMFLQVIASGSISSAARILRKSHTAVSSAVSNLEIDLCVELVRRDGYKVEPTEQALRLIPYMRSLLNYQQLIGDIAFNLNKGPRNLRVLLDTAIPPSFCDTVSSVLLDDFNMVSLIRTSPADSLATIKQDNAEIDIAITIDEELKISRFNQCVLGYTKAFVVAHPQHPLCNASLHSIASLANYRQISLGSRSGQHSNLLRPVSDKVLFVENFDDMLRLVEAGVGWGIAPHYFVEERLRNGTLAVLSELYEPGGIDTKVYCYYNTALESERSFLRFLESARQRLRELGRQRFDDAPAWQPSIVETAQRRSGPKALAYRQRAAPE

In the case of `CCCCCCCc1[nH]c2ccccc2c(=O)c1CO` [Compound 6], in data set [1], the inhibition at 0.05 µM turned out to be 5% and the inhibition at 5 µM turned out to be 28%.

Take `CCCCCCCc1[nH]c2ccc([N+](=O)[O-])cc2c(=O)c1C(N)=O` [2-heptyl-6-nitro-4-oxo-1,4-dihydroquinoline-3-carboxamide]: the “Reduction of HHQ production” value in data set [2] (at 15 μM, ref. [20]) is 54%. In data set [3] (at 22 nM corresponding to 7.3 ng g^−1 body weight, ref. [20]), the “Protection of larvae from lethal P. aeruginosa infection” value is given as “full protection”. The “Toxicity in animal model” value in data set [3] (in vivo) and in data set [6] (in vivo) was “no sign of toxicity” throughout. In addition, in data set [4], the “Inhibition of biofilm formation” value is given as “not being able to inhibit biofilm formation”. For the same compound, in data set [5] (at 15 μM, ref. [20]), the “Reduction of PQS production” value is 37%. Moreover, the “Protection of nematodes from lethal P. aeruginosa infection” value in data set [6] (ref. [20]) is reported as “strong protection”. Besides, the IC50 in data set [7] was 2 µM.

In the case of `CCCCCCCc1[nH]c2ccncc2c(=O)c1C(=O)O` [Compound 7, 2-heptyl-4-oxo-1,4-dihydro-1,6-naphthyridine-3-carboxylic acid], in [1], the inhibition at 0.05 µM is 6% and the inhibition at 5 µM amounted to 20%.

Consider `CCCCCCCc1cc(=O)c2cc(C(F)(F)F)ccc2n1C` [Ref. 1, 2-heptyl-1-methyl-6-(trifluoromethyl)quinolin-4(1H)-one, reference compound], for which, in data set [1], the inhibition at 0.05 µM was determined as 31% and the inhibition at 5 µM was found to be 100%. Further, in [8], the “Reduction of PQS” value is recorded as 8.9%. Also, the “Reduction of Pyocyanin” value in data set [9] (compd. at 15 μM) amounted to 58%.

In the case of `CCCCCCCc1[nH]c2ccc([N+](=O)[O-])cc2c(=O)c1C(=O)NO` [Compound 10, 2-heptyl-N-hydroxy-6-nitro-4-oxo-1,4-dihydroquinoline-3-carboxamide], in [1], the inhibition at 0.05 µM was 30% and the inhibition at 5 µM turned out to be 78%. The “Reduction of Pyocyanin” value in [9] (determined at 12.5 μM) was 57^e %.

Regarding `CCCCCCCc1[nH]c2ccccc2c(=O)c1C(=O)NO` [Compound 8], in [1], the inhibition at 0.05 µM turned out to be 15% and the inhibition at 5 µM worked out at 29%. Besides, the “Biofilm formation / biovolume of the biofilms” value in data set [10] was “strongly inhibited; also recorded: markedly reduced”. In addition, in data set [9] (Pseudomonas aeruginosa, PA14, read-out: IC50, production of the virulence factor pyocyanin), the IC50 is roughly 12 µM. Further, the “Reduction of Pyocyanin” value in data set [9] (determined at 12.5 μM) was 51^e %. Moreover, the “Biofilm formation / biovolume of the biofilms” value in data set [11] is “strongly inhibited; also recorded: markedly reduced”.

Regarding `CCCCCCCc1[nH]c2ccncc2c(=O)c1C(=O)OCC` [Compound 5], in [1], the inhibition at 0.05 µM was 24% and the inhibition at 5 µM was found to be 76%.

As to `CCCCCOCc1cc(=O)c2cc(C(F)(F)F)ccc2[nH]1` [Ref. 4, 2-(Pentyloxymethyl)-6-(trifluoromethyl)quinolin-4(1H)-one, reference compound], in [1], the inhibition at 0.05 µM turned out to be 29% and the inhibition at 5 µM was 100%. In addition, in [8], the “Reduction of PQS” value turned out to be 21%. In addition, in [9] (compd. at 15 μM), the “Reduction of Pyocyanin” value is reported as 29%.

Take `CCCCCCCc1[nH]c2ccc([N+](=O)[O-])cc2c(=O)c1CO` [Compound 1, 2-heptyl-3-(hydroxymethyl)-6-nitroquinolin-4(1H)-one]: in data set [1], the inhibition at 0.05 µM was determined as 45% and the inhibition at 5 µM worked out at 100%. Besides, the “Reduction of PQS” value in data set [8] was 33%. The “Reduction of Pyocyanin” value in data set [9] (compd. at 15 μM) turned out to be 83%.

For the compound `CCCCCCCc1cc(=O)c2cnccc2[nH]1` [Ref. 9, 2-Heptyl-1,6-naphthyridin-4(1H)-one, reference compound], in data set [1], the inhibition at 0.05 µM is 8% and the inhibition at 5 µM was 2%.

For `CCOCCCCc1[nH]c2ccc([N+](=O)[O-])cc2c(=O)c1C(=O)OCC` [Compound 3], in data set [1], the inhibition at 0.05 µM worked out at 2% and the inhibition at 5 µM was 27%.

Regarding `CCCCCCCc1[nH]c2ccc([N+](=O)[O-])cc2c(=O)c1C(=O)OCC` [Compound 2, ethyl 2-heptyl-6-nitro-4-oxo-1,4-dihydroquinoline-3-carboxylate], in data set [1], the inhibition at 0.05 µM is -8% and the inhibition at 5 µM came out at 20%.

As to `CCCCCCCc1[nH]c2ccccc2c(=O)c1C(=O)OCC` [Compound 4], in [1], the inhibition at 0.05 µM was determined as 18% and the inhibition at 5 µM came out at 32%.

For the compound `Nc1cccc(F)c1C(=O)O` [Compound 6FABA], the IC50 in [2] (PqsA inhibitor, refs [14, 16, 22], read-out: IC50, production of signal molecules HHQ and PQS) was roughly 100 µM.

With `COC(=O)c1ccccc1N` [methyl anthranilate], in data set [5] (at millimolar concentrations, ref. [12]), the PQS formation entry is given as “inhibit PQS formation”. For the same compound, the “Production of the virulence factor elastase” value in data set [12] was “inhibit”.

For `CCCCCCCc1[nH]c2ccccc2c(=O)c1[N+](=O)[O-]` [Compound 9, 2-heptyl-3-nitroquinolin-4(1H)-one], in data set [1], the inhibition at 0.05 µM was found to be 14% and the inhibition at 5 µM stood at 17%.

Take `CCCCCCCc1[nH]c2ccc([N+](=O)[O-])cc2c(=O)c1C(=O)O` [Compound 12, 2-heptyl-6-nitro-4-oxo-1,4-dihydroquinoline-3-carboxylic acid]: in data set [1], the inhibition at 0.05 µM worked out at 11% and the inhibition at 5 µM is 34%.
